Reference: patent US8461176B2, “Enantiomerically enriched aryloazol-2-yl cyanoethylamino compounds, method of making and method of using thereof” (Merial Limited, priority 2008, dated 2013)

Tests used:
Haemonchus contortus [1] = assay: Method A: screening of activity against Haemonchus contortus L1 larvae in microtitre plate (development to L3 / motility)
Description: Method A: Screening Method to Test Activity of Compounds Against Haemonchus contortus.

Haemonchus contortus [2] = assay: Method B: activity against Haemonchus contortus in vivo in Mongolian gerbil; parameters: species or system Mongolian gerbil (Meriones unguiculatus); details: po, 72 h, oral gavage, dose 0.1 mg/kg, read-out: reduction in nematode infection
Experimental: Method B: Screening Method to Test Activity of Compounds Against Haemonchus contortus In Vivo in Mongolian Gerbil (Meriones unguiculatus).
Mongolian gerbils, at least five weeks old, were immunosuppressed and artificially infected with ca. 1000 ensheathed Haemonchus contortus third instar larvae. Six days after infection, the Mongolian gerbils were treated by oral gavage with the test compounds, dissolved in a mixture of 2 parts DMSO and 1 part polyethylene glycol (PEG400), at doses of 100 mg/kg and dissolved in pure polyethylene glycol (PEG400) at doses of 10 and 1 mg/kg. Mongolian gerbils treated only with the placebo (2 parts DMSO and 1 part PEG400 or pure PEG400) served as controls. On day 9 (3 days after treatment) the jirds were euthanized and necropsied for recovery of parasites from the stomach. Efficacy was calculated as the average % reduction in the number of worms in each test group compared with the average number of worms from the control group. […] Compound numbers 1.001, 1.008, 1.012, 1.013 and 1.014 provided at least 95% reduction in nematode in Mongolian gerbils treated by oral gavage with test article at a dose of 100 mg/kg. Compound numbers 1.012, 1.033, 1.064, 2.008, 2.037, 2.038, 2.040, 2.041, 3.001 provided at least 95% reduction in nematode infection at a dose of 10 mg/kg. Compound numbers 1.094, 1.096, 2.048, 3.001, 3.007 and 3.009, provided at least 95% reduction in nematode infection at a dose of 1 mg/kg. Compound numbers 3.006, 3.017 and 3.019 provided at least 95% reduction in nematode infection at a dose of 0.5 mg/kg. Compound numbers 3.005, 3.011 and 3.012 provided at least 95% reduction in nematode infection at a dose of 0.3 mg/kg. The eutomer compound number 3.024 provided at least 95% reduction in nematode infection at a dose of 0.1 mg/kg.

Toxocara cati = assay: Method G: anthelmintic efficacy against induced infections of adult nematodes in cats, Toxocara cati; format: in vivo; details: oral, once, doses as low as 1 mg/kg
Experimental: (§1) Method G: Evaluation of Anthelmintic Efficacy Against Induced Infections of Adult Nematodes in Cats
(§2) Cats were inoculated on three consecutive days with an aliquot of infective eggs of Toxocara cati (days −63, −62, −61) and Ancylostoma tubaeforme (days −28, −27, −26) from one bulk solution each. The inoculation schedule was designed such that nematodes were adult on day 0. The approximate number of infective eggs/larvae given was recorded. Fecal samples were collected between day −7 and day −1 and examined to confirm the presence of infections, and are reported as eggs/gram of feces. Each formulation was orally administered once on day 0. On day 8, the cats were humanely euthanized. The stomach, cecum, small and large intestines were removed and the total content was retained for parasite recovery. Parasites were collected and identified. Efficacy was determined for each nematode species by calculating the percent efficacy as 100[(C−T)/C], where C is the mean count among untreated controls and T is the count of the treated animals.

Ancylostoma tubaeforme = assay: Method G: anthelmintic efficacy against induced infections of adult nematodes in cats, Ancylostoma tubaeforme; format: in vivo; details: oral, once, doses as low as 1 mg/kg
Experimental: as §1, §2

Haemonchus placei = assay: Method H: cattle in vivo, Haemonchus placei
Description: (§3) Method H: Screening Method to Test Activity of Compounds Against Haemonchus placei, Ostertagia ostertagi, Trichostrongylus axei, Cooperia punctata, Bunostomum phlebotomum, Oesophagostomum radiatum, Dictyocaulus viviparus, and Nematodirus helvetianus In Vivo in Cattle.
(§4) Calves were challenged intra-aurally with larvae from Bunostomum phlebotomum (500-1000 L3 per animal) on Dat −56; and orally with larvae from Oesophagostomum radiatum (1,000-2,000 infective L3 per animal) on Dat −49, Nematodirus helvetianus (3,000-6,000 infective L3 per animal) on Dat −28, Haemonchus placei (5,000-7,000 infective L3 per animal) on Dat −28, Dictyocaulus viviparus (1,000-2,000 infective L3 per animal) on Dat −28, Ostertagia ostertagi (10,000-20,000 infective L3 per animal) on Dat −21, Trichostrongylus axei (10,000-20,000 infective L3 per animal) on Dat −21, Cooperia punctata (10,000-20,000 infective L3 per animal) on Dat −28, and Cooperia oncophora (10,000-20,000 infective L3 per animal) on Dat −21. The test compound was administered alone at a dose of 3 or 6 mg/kg orally or subcutaneously or subcutaneously at a dose of 6 mg/kg in combination with ivermectin at a dose of 50 mcg/kg. For oral administration, test compounds were formulated at a concentration of 10 mg/mL in DMSO/Corn oil (1:1). For subcutaneous administration, test compounds were formulated in propylene glycol/glycerol formal (60:40). All treatments were administered at Day 0. At necropsy on Day 14/15, the abomasa, small intestine and large intestine were removed and processed for parasite recovery. Nematode counts were conducted on appropriate aliquots. Efficacy was calculated for each nematode species by calculating the percent efficacy as 100[(C−T)/C], where C is the mean count among untreated controls and T is the count of the treated animals. Compound number 3.024 provided >95% efficacy against Haemonchus placei, Ostertagia ostertagi, Trichostrongylus axei, Cooperia punctata, Oesophagostomum radiatum and Nematodirus helvetianus at a dose as low as 3 mg/kg administered orally. […]

Ostertagia ostertagi = assay: Method H: cattle in vivo, Ostertagia ostertagi; details: compound alone, dose as low as 3 mg/kg administered orally
Description: as §3
(§5) Calves were challenged intra-aurally with larvae from Bunostomum phlebotomum (500-1000 L3 per animal) on Dat −56; and orally with larvae from Oesophagostomum radiatum (1,000-2,000 infective L3 per animal) on Dat −49, Nematodirus helvetianus (3,000-6,000 infective L3 per animal) on Dat −28, Haemonchus placei (5,000-7,000 infective L3 per animal) on Dat −28, Dictyocaulus viviparus (1,000-2,000 infective L3 per animal) on Dat −28, Ostertagia ostertagi (10,000-20,000 infective L3 per animal) on Dat −21, Trichostrongylus axei (10,000-20,000 infective L3 per animal) on Dat −21, Cooperia punctata (10,000-20,000 infective L3 per animal) on Dat −28, and Cooperia oncophora (10,000-20,000 infective L3 per animal) on Dat −21. The test compound was administered alone at a dose of 3 or 6 mg/kg orally or subcutaneously or subcutaneously at a dose of 6 mg/kg in combination with ivermectin at a dose of 50 mcg/kg. […] Efficacy was calculated for each nematode species by calculating the percent efficacy as 100[(C−T)/C], where C is the mean count among untreated controls and T is the count of the treated animals. […]

Trichostrongylus axei = assay: Method H: cattle in vivo, Trichostrongylus axei; details: compound alone, dose as low as 3 mg/kg administered orally
Description: as §3, §5

Cooperia punctata = assay: Method H: cattle in vivo, Cooperia punctata; details: compound alone, dose as low as 3 mg/kg administered orally
Description: as §3, §5

Oesophagostomum radiatum = assay: Method H: cattle in vivo, Oesophagostomum radiatum; details: compound alone, dose as low as 3 mg/kg administered orally
Description: as §3, §5

Nematodirus helvetianus = assay: Method H: cattle in vivo, Nematodirus helvetianus
Description: as §3, §4

[3] = test system: Ivermectin-Resistant Haemonchus contortus, Ostertagia circumcincta, and Trichostrongylus colubriformis; assay: Method I: activity against ivermectin-resistant nematodes in vivo in sheep (all species tested); details: oral, once, doses as low as 1.5 mg/kg
Description: (§6) Method I: Screening Method to Test Activity of Compounds Against Ivermectin-Resistant Haemonchus contortus, Ostertagia circumcincta, and Trichostrongylus colubriformis In Vivo in Sheep.
(§7) Sheep were challenged orally with infective 3rd stage larvae (L3) of Ostertagia circumcincta (˜3,000-6,000 infective L3 per animal) on Dat −28, Haemonchus contortus (˜2,000-4,000 infective L3 per animal) on Dat −25, and Trichostrongylus colubriformis (˜3,000-6,000 infective L3 per species per animal) on Dat −23. The inoculation schedule was designed so that nematodes were expected to be in the adult stage on Day 0. Test compounds were dissolved in a mixture of DMSO/Corn oil (1:1) at a concentration of 10 mg/mL. All treatments were administered orally once on Day 0. At sacrifice on Day 14 the abomasum, small intestine and large intestine (including cecum) were removed. Nematode counts were conducted on 10% (abomasal and small intestinal content, abomasal soak) or 20% aliquots (large intestinal content). All nematodes were speciated, or assigned to species based on location of recovery (adult females, fourth-stage larvae) for a total count per species. Efficacy was calculated as the % reduction in the mean number of worms in each test group compared with the mean number of worms recovered from the control group. […]

[4] = test system: ivermectin-resistant Haemonchus contortus; assay: Method I: sheep in vivo, ivermectin-resistant Haemonchus contortus; details: 1.5 mg/kg or 3 mg/kg orally
Description: as §6, §7

[5] = test system: ivermectin-resistant Ostertagia circumcincta; assay: Method I: sheep in vivo, ivermectin-resistant Ostertagia circumcincta; details: 1.5 mg/kg or 3 mg/kg orally
Description: as §6, §7

[6] = test system: ivermectin-resistant Trichostrongylus columbriformis; assay: Method I: sheep in vivo, ivermectin-resistant Trichostrongylus colubriformis; details: 1.5 mg/kg or 3 mg/kg orally
Description: as §6, §7

Caenorhabditis elegans = assay: Inhibition of the motility of Caenorhabditis elegans
[7] = compound alone, dose as low as 3 mg/kg administered orally
[8] = subcutaneous, 6 mg/kg in combination with ivermectin 50 μg/kg (0.05 mg/kg)

C[C@](C#N)(Cn1cc2ncc(Br)cc2n1)NC(=O)c1ccc(OC(F)(F)F)cc1 [Compound 3.024, (+)-N-[2-(6-Bromo-2H-pyrazolo[4,3-b]pyridin-2-yl)-1-cyano-1-methylethyl]-4-trifluoromethoxybenzamide]
≥ 90%: inhibition at 0.0025 ppm (Haemonchus contortus [1]; Haemonchus contortus, 96 h, test concentration 0.0025 ppm, 4 days assessment)
> 95%: efficacy against Haemonchus placei (Haemonchus placei; [7]) | efficacy against Ostertagia ostertagi (Ostertagia ostertagi) | efficacy against Trichostrongylus axei (Trichostrongylus axei) | efficacy against Cooperia punctata (Cooperia punctata) | efficacy against Oesophagostomum radiatum (Oesophagostomum radiatum) | efficacy against Nematodirus helvetianus (Nematodirus helvetianus; [7]) | efficacy against all species of the nematodes tested (ivermectin-resistant) [3]
> 94%: efficacy against Toxocara cati (Toxocara cati) | efficacy against Ancylostoma tubaeforme (Ancylostoma tubaeforme)
≥ 95%: inhibition in vivo at 0.1 mg/kg (Haemonchus contortus [2])
greater than 100 times: potency at inhibiting the motility of Haemonchus contortus larvae, eutomer relative to distomer (Haemonchus contortus [1]; relative to the distomer (compound 3.025)) | potency at inhibiting the motility of Caenorhabditis elegans, relative to compound 3.025 (Caenorhabditis elegans)
greater than 95%: efficacy against Haemonchus placei (ivermectin-resistant strain) (Haemonchus placei; [8]) | efficacy against Nematodirus helvetianus (Nematodirus helvetianus; [8]) | efficacy against ivermectin-resistant Haemonchus contortus [4] | efficacy against ivermectin-resistant Ostertagia circumcincta [5] | efficacy against ivermectin-resistant Trichostrongylus columbriformis [6]
